Patent US6489308B1, “Inhibitors of serine protease activity, methods and compositions for treatment of nitric-oxide-induced clinical conditions” (Trustees of University of Technology Corporation, priority 1999, dated 2002)
“Also recorded” adds a separate entry of the source.

Legend:
Type in all cases: cell-based
NF-κB = assay: Electrophoretic mobility shift assay of NF-κB induced by interleukin-18; settings: incubation with IL-18, FIG. 3
[1] = test system: herpes simplex virus (HSV); assay: Herpes simplex virus replication; settings: FIG. 7
RAW 264.5 macrophages = assay: NO release (nitrite, Greiss reagent) upon induction with LPS and γ-IFN in macrophagic cells; settings: FIG. 1 / FIG. 4
p-ERK = assay: Western blot of p-ERK (p42/p44 MAP kinase); settings: FIG. 5
iNOS protein = assay: Western blot of iNOS protein induction by LPS and γ-interferon in macrophagic cells; settings: γ-IFN and LPS, FIG. 2
cytomegalovirus (CMV) = assay: Cytomegalovirus replication in infected RAW 264.5 macrophages; settings: RAW 264.5 macrophages infected with CMV; FIG. 6

Molecule | induction of active NF-κB (NF-κB) | replication of HSV [1] | NO levels induced by γ-IFN and LPS (measured as NO2-) (RAW 264.5 macrophages) | level and/or phosphorylation of p-ERK (p-ERK) | induction of iNOS protein (iNOS protein) | CMV replication (cytomegalovirus (CMV))
α1-antitrypsin: glycoprotein of MW 51,000 with 417 amino acids and 3 oligosaccharide side chains; naturally occurring serine protease inhibitor | inhibit the induction of active NF-κB | inhibits replication of HSV | efficiently block γ-IFN- and LPS-induced NO synthesis; also recorded: inhibits NO levels | inhibits the level and/or phosphorylation of p-ERK | inhibits induction of iNOS protein | blocks CMV replication
Cc1cccc(Cc2nnc(C(=O)C(NC(=O)[C@@H]3CCCN3C(=O)[C@@H](NC(=O)OCc3ccccc3)C(C)C)C(C)C)o2)c1 (stereo partly drawn) [CE-2072, benzyloxycarbonyl-L-valyl-N-[1-(2-[5-(3-methylbenzyl)-1,3,4-oxadiazolyl]carbonyl)-2-(S)-methylpropyl]-L-prolinamide, reference compound] | inhibit the induction of active NF-κB |  | inhibits NO levels |  |  | 
